Experimental data as given in the NIST ThermoML archive (doi:10.1021/acs.jced.5b00936).

Key:
[1] = for viscosity / mass density: 100 kPa, Liquid; for viscosity: Concentric cylinders viscometry; for mass density: Vibrating tube method; for Triple point temperature: Crystal, DSC
[2] = refractive index (Na D-line) (dimensionless); details: 100 kPa, Liquid, Standard Abbe refractometry

CCCC[P+](CCCC)(CCCC)CCCC.O=S(=O)([O-])CCN(CCO)CCO
Details	mass density, [1] [kg/m3]	refractive index, [2]	viscosity, [1] [mPa·s]
288.15 K	1066.8	1.49778	41313
293.15 K	1063.9	1.4964	24078
298.15 K	1061	1.49502	14082
303.15 K	1058.1	1.49365	8504.9
308.15 K	1055.3	1.49333	5315.8
313.15 K	1052.4	1.49198	3370.9
318.15 K	1049.6	1.49061	2199.4
323.15 K	1046.8	1.48921	1356.9
328.15 K	1044	1.48744	871
333.15 K	1041.2	1.4859	611.8
338.15 K	1038.4	1.48437	458.9
343.15 K	1035.6	1.48287	352.3
348.15 K	1032.8	1.48142	273.6
353.15 K	1030.1	1.48003	214.5

CCCC[N+](CCCC)(CCCC)CCCC.O=S(=O)([O-])CC(O)CNC(CO)(CO)CO
Details	Triple point temperature [K]
[1]	364.15

CCCC[P+](CCCC)(CCCC)CCCC.O=S(=O)([O-])CC(O)CN1CCOCC1 [tetrabutylphosphonium 2-hydroxy-3-morpholinopropanesulfonate]
Details	mass density, [1] [kg/m3]	refractive index, [2]	viscosity, [1] [mPa·s]
288.15 K	1062.9	1.4959	22869
293.15 K	1059.9	1.49447	12430
298.15 K	1056.8	1.49299	7312.9
303.15 K	1053.7	1.49152	4493.6
308.15 K	1050.5	1.48999	2859.8
313.15 K	1047.5	1.48836	1889.2
318.15 K	1044.4	1.4866	1277
323.15 K	1041.3	1.48573	886.7
328.15 K	1038.2	1.4841	630.4
333.15 K	1035.1	1.48239	457.8
338.15 K	1032.1	1.48069	339.2
343.15 K	1029.1	1.47908	255.6
348.15 K	1026.2	1.47761	195.8
353.15 K	–	1.47622	152.3

C[N+](C)(C)CCO.O=S(=O)([O-])CC(O)CN1CCOCC1 (configuration not stated)
Details	mass density, [1] [kg/m3]	refractive index, [2]	viscosity, [1] [mPa·s]
308.15 K	1235.3	1.49778	49189
313.15 K	1232	1.49658	28090
318.15 K	1228.7	1.49531	16897
323.15 K	1225.6	1.49453	10898
328.15 K	1222.5	1.49323	6933.2
333.15 K	1219.5	1.49185	4600.3
338.15 K	1216.5	1.48995	3099.4
343.15 K	1213.5	1.48831	2158.8
348.15 K	1211.6	1.48671	1545.5
353.15 K	1209.7	1.4852	1122.3

CCCC[P+](CCCC)(CCCC)CCCC.O=S(=O)([O-])CC(O)CNC1CCCCC1
Details	mass density, [1] [kg/m3]	refractive index, [2]	viscosity, [1] [mPa·s]
288.15 K	1037.4	1.49654	32956
293.15 K	1034.2	1.49497	17587
298.15 K	1031.1	1.49313	10098
303.15 K	1028.2	1.49162	6481.6
308.15 K	1025.1	1.48983	3796
313.15 K	1022.1	1.48782	2441.9
318.15 K	1019	1.48724	1624.2
323.15 K	1016	1.48547	1109.7
328.15 K	1012.9	1.48368	779.6
333.15 K	1009.8	1.48202	558.2
338.15 K	1006.8	1.48045	409
343.15 K	1003.8	1.47902	304.6
348.15 K	1000.9	1.47764	231
353.15 K	997.9	1.4763	177.9

CCCC[P+](CCCC)(CCCC)CCCC.O=S(=O)([O-])CC(O)CNC(CO)(CO)CO
Details	Triple point temperature [K]
[1]	369.15

C[N+](C)(C)CCO.O=S(=O)([O-])CC(O)CNC1CCCCC1 (configuration not stated)
Details	Triple point temperature [K]
[1]	365.15

CCCC[N+](CCCC)(CCCC)CCCC.O=S(=O)([O-])CCN(CCO)CCO
Details	mass density, [1] [kg/m3]	refractive index, [2]	viscosity, [1] [mPa·s]
288.15 K	–	1.49093	–
293.15 K	–	1.48966	–
298.15 K	–	1.48834	–
303.15 K	–	1.48706	–
308.15 K	–	1.48577	–
313.15 K	1052.4	1.48445	12001
318.15 K	1049.6	1.48317	7582.5
323.15 K	1046.8	1.48185	4970.6
328.15 K	1044	1.48052	3346.6
333.15 K	1041.2	1.4792	2305.7
338.15 K	1038.4	1.47784	1621.8
343.15 K	1035.6	1.47646	1163.2
348.15 K	1032.8	1.47502	848.3
353.15 K	1030.1	1.47363	630

CCCC[N+](CCCC)(CCCC)CCCC.O=S(=O)([O-])CC(O)CN1CCOCC1 [tetrabutylammonium 2-hydroxy-3-morpholinopropanesulfonate]
Details	mass density, [1] [kg/m3]	refractive index, [2]	viscosity, [1] [mPa·s]
308.15 K	1051.2	1.48328	34148
313.15 K	1048.2	1.48188	18392
318.15 K	1045.3	1.48038	10603
323.15 K	1042.3	1.47873	6381.1
328.15 K	1039.4	1.47693	3976.3
333.15 K	1035.8	1.47525	2571.7
338.15 K	1033.1	1.47377	1702.9
343.15 K	1030.4	1.47242	1158.3
348.15 K	1027.6	1.47111	807.1
353.15 K	1024.7	1.46984	574.9

CCCC[N+](CCCC)(CCCC)CCCC.O=S(=O)([O-])CC(O)CNC1CCCCC1
Details	mass density, [1] [kg/m3]	refractive index, [2]	viscosity, [1] [mPa·s]
308.15 K	1020.4	1.48329	41227
313.15 K	1017.3	1.48189	22114
318.15 K	1014.4	1.48037	12579
323.15 K	1011.5	1.47937	7480.4
328.15 K	1008.6	1.47772	4609.3
333.15 K	1005.7	1.47617	2935.7
338.15 K	1002.8	1.47449	1926.8
343.15 K	999.9	1.47291	1299.4
348.15 K	997.2	1.47137	898.5
353.15 K	994.3	1.46985	635.7

C[N+](C)(C)CCO.O=S(=O)([O-])CCN(CCO)CCO
Details	mass density, [1] [kg/m3]	refractive index, [2]	viscosity, [1] [mPa·s]
293.15 K	1248	–	33236
298.15 K	1244.8	1.50047	20518
303.15 K	1241.8	1.49937	13056
308.15 K	1238.9	1.49826	8631.6
313.15 K	1236.1	1.49716	5848.4
318.15 K	1233.3	1.49602	4045.8
323.15 K	1230.5	1.49476	2861
328.15 K	1227.7	1.49317	2061.7
333.15 K	1224.9	1.49148	1526.8
338.15 K	1222.2	1.49052	1136.6
343.15 K	1219.5	1.48921	858.1
348.15 K	1216.8	1.48749	658.8
353.15 K	1214.1	1.48633	512.7

C[N+](C)(C)CCO.O=S(=O)([O-])CC(O)CNC(CO)(CO)CO (configuration not stated)
Details	mass density, [1] [kg/m3]	refractive index, [2]	viscosity, [1] [mPa·s]
323.15 K	–	1.50991	–
328.15 K	1316.4	1.50884	56778
333.15 K	1313.3	1.50769	34168
338.15 K	1310.3	1.50654	21501
343.15 K	1307.4	1.50552	14013
348.15 K	1304.6	1.5044	9355.9
353.15 K	1301.8	1.50327	6385.4
